Reference: ChEMBL document CHEMBL1201862, “PubChem BioAssay data set” (2004)
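Results reflect a 48-hour exposure of cells in 96-well plates to compound at five concentrations. The concentration for 50% growth inhibition is given as GI50.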 Activity calls are given as the source filed them. Rule as the data show it: active = GI50 up to about 1.1 µM and inactive = higher.

What was measured:
Assay in all cases: NCI-60 cell line screen, 48 h
[1] = test system: 786-0
[2] = test system: SW-620
[3] = test system: UACC-257
[4] = test system: SR
[5] = test system: NCI-H522
[6] = test system: OVCAR-3
[7] = test system: CAKI-1
[8] = test system: HCT-15
[9] = test system: DLD-1
[10] = test system: SK-MEL-28
[11] = test system: TK-10
[12] = test system: CCRF-CEM
[13] = test system: SF-295
[14] = test system: KM-20L2
[15] = test system: SK-MEL-5
[16] = test system: LOX IMVI
[17] = test system: OVCAR-5
[18] = test system: NCI-H23
[19] = test system: DMS-273
[20] = test system: U-251
[21] = test system: A549
[22] = test system: COLO 205
[23] = test system: SNB-75
[24] = test system: SF-268
[25] = test system: SK-MEL-2
[26] = test system: HOP-62
[27] = test system: SN12C
[28] = test system: ACHN
[29] = test system: M19-MEL
[30] = test system: Malme-3M
[31] = test system: HOP-92
[32] = test system: OVCAR-4
[33] = test system: SNB-19
[34] = test system: HOP-18
[35] = test system: DMS-114
[36] = test system: RPMI-8226
[37] = test system: IGROV-1
[38] = test system: SF-539
[39] = test system: M14
[40] = test system: UO-31
[41] = test system: RXF 393
[42] = test system: EKVX
[43] = test system: HCT-116
[44] = test system: MOLT-4
[45] = test system: LXFL 529
[46] = test system: NCI-H460
[47] = test system: XF498
[48] = test system: NCI-H226
[49] = test system: SNB-78
[50] = test system: HT-29
[51] = test system: UACC-62
[52] = test system: HCC 2998
[53] = test system: RXF 631
[54] = test system: SK-OV-3
[55] = test system: OVCAR-8
[56] = test system: KM12
[57] = test system: HL-60
[58] = test system: K562

Measured: GI50

O=C1COc2cc(NC(=S)Nc3ccccc3)ccc2N1
> 100 µM: [8]
inactive: [1] > 100 µM | [2] > 100 µM | [3] > 100 µM | [4] > 100 µM | [5] > 100 µM | [6] > 100 µM | [7] > 100 µM | [9] > 100 µM | [10] > 100 µM | [11] > 100 µM | [12] > 100 µM | [13] > 100 µM | [14] > 100 µM | [15] > 100 µM | [16] > 100 µM | [17] > 100 µM | [18] > 100 µM | [19] > 100 µM | [20] > 100 µM | [21] > 100 µM | [22] > 100 µM | [23] > 100 µM | [24] > 100 µM | [25] > 100 µM | [26] > 100 µM | [27] > 100 µM | [28] > 100 µM | [29] > 100 µM | [30] > 100 µM | [31] > 100 µM | [32] > 100 µM | [33] > 100 µM | [34] > 100 µM | [35] > 100 µM | [36] > 100 µM | [37] > 100 µM | [38] > 100 µM | [39] > 100 µM | [40] > 100 µM | [41] > 100 µM | [42] > 100 µM | [43] > 100 µM | [44] > 100 µM | [45] > 100 µM | [46] > 100 µM | [47] > 100 µM | [48] > 100 µM | [49] > 100 µM | [50] > 100 µM | [51] > 100 µM | [52] > 100 µM | [53] > 100 µM | [54] > 100 µM | [55] > 100 µM | [56] > 100 µM | [57] > 100 µM | [58] > 100 µM
